# Structures can show the parent of a compound that is named as a salt. Where two headings read alike, the source gives them in different places.
# Tests used:
# human H2 receptor = biological target: T1, human H2 receptor (Homo sapiens, UniProt P25021); assay: Radioligand binding to histamine receptor H2 ([125I] Aminopotentidine, CHO-K1 membranes); details: for inhibition at 10 µM: read-out: Histamine receptors, % inhibition H2
# T1 construct: expressed in transfected cells; host or cells: CHO-K1
# T1 sequence (P25021 whole entry): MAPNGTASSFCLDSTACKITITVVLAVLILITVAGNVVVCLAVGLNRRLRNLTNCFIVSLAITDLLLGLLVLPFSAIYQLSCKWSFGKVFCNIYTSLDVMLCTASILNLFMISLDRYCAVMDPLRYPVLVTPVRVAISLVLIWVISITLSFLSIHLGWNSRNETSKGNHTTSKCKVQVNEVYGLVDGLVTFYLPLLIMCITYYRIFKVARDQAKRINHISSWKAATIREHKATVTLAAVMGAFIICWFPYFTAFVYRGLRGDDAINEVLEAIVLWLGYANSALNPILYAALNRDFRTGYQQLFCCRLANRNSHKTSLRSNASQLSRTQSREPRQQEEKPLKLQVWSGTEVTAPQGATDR
# Description: Proc Natl Acad Sci USA. 87(5): 1658-1662, 1990]. […] Proc Natl Acad Sci USA. 87(5): 1658-1662, 1990]. […] Tiotidine is used as positive control.
# human D1 receptor = biological target: T2, human D1 receptor (Homo sapiens, UniProt P21728); assay: Radioligand binding to dopamine receptor D1 ([3H] SCH-23390, CHO membranes); details: for inhibition at 10 µM: read-out: Dopamine receptors, % inhibition D1
# T2 construct: expressed in transfected cells; host or cells: CHO
# T2 sequence (P21728 whole entry): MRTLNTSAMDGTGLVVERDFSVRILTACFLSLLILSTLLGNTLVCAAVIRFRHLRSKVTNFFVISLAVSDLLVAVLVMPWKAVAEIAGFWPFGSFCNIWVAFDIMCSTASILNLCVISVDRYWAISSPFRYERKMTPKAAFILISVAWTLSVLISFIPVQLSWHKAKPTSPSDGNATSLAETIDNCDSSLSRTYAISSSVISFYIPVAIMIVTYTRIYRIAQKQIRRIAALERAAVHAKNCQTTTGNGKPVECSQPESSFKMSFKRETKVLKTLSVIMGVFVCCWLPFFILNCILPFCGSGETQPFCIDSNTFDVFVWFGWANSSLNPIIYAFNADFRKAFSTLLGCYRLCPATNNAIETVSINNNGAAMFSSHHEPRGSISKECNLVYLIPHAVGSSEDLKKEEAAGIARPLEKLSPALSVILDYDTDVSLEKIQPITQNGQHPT
# Description: For this purpose sDNA of human D1 receptor is expressed in CHO cells, as it was described in [Dearry A, Gingrich JA, Falardeau P, Fremeau RT Jr, Bates MD and Caron MG. Molecular cloning and expression of the gene for a human D1 dopamine receptor. Nature. […] Nature.
# human α1D receptor = biological target: T3, human α1D receptor (Homo sapiens, UniProt P25100); assay: Radioligand binding to adrenergic receptor α1D ([3H] Prazosin, HEK-293 membranes); details: for nH: Receptor α1D
# T3 construct: expressed in transfected cells; host or cells: HEK-293
# T3 sequence (P25100 1-572): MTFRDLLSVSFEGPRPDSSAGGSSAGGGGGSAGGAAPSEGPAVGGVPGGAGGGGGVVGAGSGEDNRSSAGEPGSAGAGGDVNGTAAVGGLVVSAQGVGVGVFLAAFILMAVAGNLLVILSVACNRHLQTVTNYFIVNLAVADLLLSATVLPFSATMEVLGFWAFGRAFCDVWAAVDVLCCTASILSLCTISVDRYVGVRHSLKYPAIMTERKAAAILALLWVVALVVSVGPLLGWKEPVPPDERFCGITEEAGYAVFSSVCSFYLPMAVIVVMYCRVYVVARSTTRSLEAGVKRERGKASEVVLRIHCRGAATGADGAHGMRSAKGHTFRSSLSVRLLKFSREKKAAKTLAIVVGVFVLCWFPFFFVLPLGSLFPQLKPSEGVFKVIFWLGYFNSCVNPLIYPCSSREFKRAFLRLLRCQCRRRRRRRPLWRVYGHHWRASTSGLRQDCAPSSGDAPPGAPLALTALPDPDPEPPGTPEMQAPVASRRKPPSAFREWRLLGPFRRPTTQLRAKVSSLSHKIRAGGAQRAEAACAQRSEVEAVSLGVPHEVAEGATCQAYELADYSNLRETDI
# Description: 6-C. […] For this purpose sDNA of human α1D receptor is expressed in HEK-293 cells, as it was described in [TL Theroux, TA Esbenshade, RD Peavy and KP Minneman. Coupling efficiencies of human alpha 1-adrenergic receptor subtypes: titration of receptor density and responsiveness with inducible and repressible expression vectors. Mol Pharmacol.; 50: 1376-1387, 1996]. […] Characterization of an α1D-adrenoceptor mediating the contractile response of rat aorta to noradrenaline. […] Prazosin is used as positive control.
# human H1 receptor = biological target: T4, human H1 receptor (Homo sapiens, UniProt P35367); assay: Radioligand binding to histamine receptor H1 ([3H] Pyrilamine, CHO-K1 membranes); details: for nH: histamine H1 receptors
# T4 construct: expressed in transfected cells; host or cells: CHO-K1
# T4 sequence (P35367 whole entry): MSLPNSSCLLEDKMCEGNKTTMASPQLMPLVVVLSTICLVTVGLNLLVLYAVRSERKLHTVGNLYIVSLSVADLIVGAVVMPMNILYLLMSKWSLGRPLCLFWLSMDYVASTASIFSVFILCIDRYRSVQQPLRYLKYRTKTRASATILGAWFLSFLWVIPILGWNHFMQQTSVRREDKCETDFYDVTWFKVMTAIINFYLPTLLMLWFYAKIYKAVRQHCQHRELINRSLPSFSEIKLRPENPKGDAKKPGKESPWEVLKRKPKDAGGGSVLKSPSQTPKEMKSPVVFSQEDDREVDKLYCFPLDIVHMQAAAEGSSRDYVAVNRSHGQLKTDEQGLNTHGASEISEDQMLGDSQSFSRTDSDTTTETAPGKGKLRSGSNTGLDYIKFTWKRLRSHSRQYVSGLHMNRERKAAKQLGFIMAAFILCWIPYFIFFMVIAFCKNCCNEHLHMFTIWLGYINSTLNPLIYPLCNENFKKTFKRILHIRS
# Description: Biochem Biophys Res Comm. 197(3): 1601-1608, 1993]. […] Biochem Biophys Res Comm. 197(3): 1601-1608, 1993].
# Pyrilamine is used as positive control.
# human D4.2 receptor = biological target: T5, human D4.2 receptor (Homo sapiens, UniProt P21917, DEL265-296); assay: Radioligand binding to dopamine receptor D4.2 ([3H] Spiperone, CHO-K1 membranes); details: read-out: Dopamine receptors, % inhibition D4.2
# T5 construct: expressed in transfected cells; host or cells: CHO-K1
# T5 sequence (P21917 with tags, fused parts or gaps DEL265-296): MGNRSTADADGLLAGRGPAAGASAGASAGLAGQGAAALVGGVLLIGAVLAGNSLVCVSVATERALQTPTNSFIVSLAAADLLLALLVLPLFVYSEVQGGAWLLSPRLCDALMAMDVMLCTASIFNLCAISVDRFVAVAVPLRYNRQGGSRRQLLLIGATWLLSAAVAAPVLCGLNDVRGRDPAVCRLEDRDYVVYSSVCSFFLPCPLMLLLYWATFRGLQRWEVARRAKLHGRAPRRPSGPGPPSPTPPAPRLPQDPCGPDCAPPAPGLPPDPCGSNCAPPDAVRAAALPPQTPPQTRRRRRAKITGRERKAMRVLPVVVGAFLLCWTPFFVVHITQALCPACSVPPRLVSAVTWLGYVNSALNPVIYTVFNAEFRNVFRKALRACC
# Description: Screening of the disclosed compounds for potential ability to interact with dopamine receptor D4.2 is carried out by method of radioligand binding. […] From the cells transfected in this way membrane species are prepared by homogenization of these cells in glass homogenizer with the subsequent separation of plasmatic membranes from cell nuclei, mitochondrias and cell wreckages by differential centrifugation. […] After incubation samples are filtered in vacuo on glass-microfiber filters G/F (Millipor, USA), filters are washed three times with cold solution of medium and radioactivity is measured by scintillation counter MicroBeta 340 (Perkin Elmer, USA). Nonspecific binding which makes up 10% of the overall binding is determined by incubation of membrane species with radioligand in the presence of 10 µM of Haloperidol.
# Spiperone is used as positive control. Tested compounds' binding to the receptor is determined by their ability to displace radioligand and expressed in percent of displacement (%I). Values of %I are calculated according to the following equation: %I = (TA-CA)/(TA-NA)*100, [formula] wherein: TA - is overall radioactivity in the presence of radioligand only, CA - is radioactivity in the presence of radioligand and tested compound and NA - is radioactivity in the presence of radioligand and Haloperidol (10 µM).
# human D2S receptor = biological target: T6, human D2S receptor (Homo sapiens, UniProt P14416); assay: Radioligand binding to dopamine receptor D2S ([3H] Spiperone, CHO membranes)
# T6 construct: expressed in transfected cells; host or cells: CHO
# T6 sequence (P14416 1-414 isoform P14416-2): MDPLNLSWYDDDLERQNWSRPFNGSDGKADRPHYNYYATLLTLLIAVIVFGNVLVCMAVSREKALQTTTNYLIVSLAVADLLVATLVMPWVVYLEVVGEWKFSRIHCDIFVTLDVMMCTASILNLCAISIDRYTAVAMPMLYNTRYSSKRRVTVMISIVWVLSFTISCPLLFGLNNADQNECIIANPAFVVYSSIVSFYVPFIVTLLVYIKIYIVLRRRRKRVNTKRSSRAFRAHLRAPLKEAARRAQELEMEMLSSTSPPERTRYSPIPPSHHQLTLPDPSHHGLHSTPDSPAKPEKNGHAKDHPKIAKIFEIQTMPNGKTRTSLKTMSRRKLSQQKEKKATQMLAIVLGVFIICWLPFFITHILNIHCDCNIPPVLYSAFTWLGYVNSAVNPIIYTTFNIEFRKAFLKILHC
# Description: 7-C. […] For this purpose sDNA of human D2S receptor is expressed in CHO cells, as described in [Hayes G, Biden TJ, Selbie LA and Shine J, Structural subtypes of the dopamine D2 receptor are functionally distinct. […] Mol Endocrinol. […] Mol Endocrinol. […] Spiperone is used as positive control.
# [1] = biological target: T7, recombinant human 5-HT2A receptor (Homo sapiens, UniProt P28223); assay: Radioligand binding to serotonin receptor 5-HT2A ([3H] Ketanserin, CHO-K1 membranes); details: for inhibition at 10 µM / 5-HT2A % inhibition: 10 µM ligand
# T7 construct: expressed in transfected cells; host or cells: CHO-K1
# T7 sequence (P28223 whole entry): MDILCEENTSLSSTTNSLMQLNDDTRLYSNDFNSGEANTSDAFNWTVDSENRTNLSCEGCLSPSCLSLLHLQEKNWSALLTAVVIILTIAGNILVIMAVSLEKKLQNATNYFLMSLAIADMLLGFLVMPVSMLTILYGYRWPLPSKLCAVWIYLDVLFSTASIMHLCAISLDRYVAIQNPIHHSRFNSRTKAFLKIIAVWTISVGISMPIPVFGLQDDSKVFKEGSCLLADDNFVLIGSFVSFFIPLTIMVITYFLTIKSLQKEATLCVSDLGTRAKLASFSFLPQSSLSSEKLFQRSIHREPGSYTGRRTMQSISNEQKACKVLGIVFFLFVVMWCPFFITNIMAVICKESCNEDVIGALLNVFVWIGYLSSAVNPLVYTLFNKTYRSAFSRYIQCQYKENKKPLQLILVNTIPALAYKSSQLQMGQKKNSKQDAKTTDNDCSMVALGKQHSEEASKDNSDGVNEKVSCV
# Description: 9-C. […] J Neurochem. […] Ketanserin is used as positive control.
# recombinant human 5-HT1A = biological target: T8, recombinant human 5-HT1A (Homo sapiens, UniProt P08908); assay: Radioligand binding to serotonin receptor 5-HT1A ([3H] 8-OH-DPAT, CHO membranes); details: for inhibition at 10 µM: read-out: 5-HT1A % inhibition
# T8 construct: expressed in transfected cells; host or cells: CHO
# T8 sequence (P08908 1-422): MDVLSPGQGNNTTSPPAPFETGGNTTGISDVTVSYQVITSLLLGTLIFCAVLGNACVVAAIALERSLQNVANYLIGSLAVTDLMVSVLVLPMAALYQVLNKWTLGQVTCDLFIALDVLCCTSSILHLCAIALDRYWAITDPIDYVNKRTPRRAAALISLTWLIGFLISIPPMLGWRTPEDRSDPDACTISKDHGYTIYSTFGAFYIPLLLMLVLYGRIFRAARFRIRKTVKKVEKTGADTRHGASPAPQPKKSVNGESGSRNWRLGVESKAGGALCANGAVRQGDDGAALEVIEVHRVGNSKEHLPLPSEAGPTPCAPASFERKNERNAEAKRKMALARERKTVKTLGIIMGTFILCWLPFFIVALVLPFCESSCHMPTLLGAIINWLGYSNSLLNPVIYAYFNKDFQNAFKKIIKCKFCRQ
# Description: J Pharmacol Exp Ther. 306(1): 301-309, 2003]. […] Metergoline is used as positive control.
# human 5-HT7 receptor = biological target: T9, human 5-HT7 receptor (Homo sapiens, UniProt P34969); assay: Radioligand binding to serotonin receptor 5-HT7 ([3H] Lysergic acid diethylamide, CHO membranes)
# T9 construct: expressed in transfected cells; host or cells: CHO
# T9 sequence (P34969 whole entry): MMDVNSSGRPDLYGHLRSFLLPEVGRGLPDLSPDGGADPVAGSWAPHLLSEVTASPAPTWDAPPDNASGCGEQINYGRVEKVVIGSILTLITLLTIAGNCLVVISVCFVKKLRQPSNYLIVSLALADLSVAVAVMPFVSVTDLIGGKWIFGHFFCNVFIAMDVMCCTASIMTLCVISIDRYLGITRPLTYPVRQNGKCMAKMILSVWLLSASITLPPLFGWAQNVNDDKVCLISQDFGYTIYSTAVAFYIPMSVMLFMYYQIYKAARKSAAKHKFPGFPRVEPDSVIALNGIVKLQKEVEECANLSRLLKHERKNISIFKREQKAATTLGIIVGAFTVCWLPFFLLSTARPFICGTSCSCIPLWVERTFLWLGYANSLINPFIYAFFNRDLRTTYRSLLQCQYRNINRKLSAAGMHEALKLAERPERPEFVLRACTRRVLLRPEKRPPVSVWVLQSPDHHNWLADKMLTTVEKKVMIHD
# Description: For this purpose sDNA of human 5-HT7 receptor is expressed in CHO cells as it was described in [Shen Y, Monsma FJ Jr, Metcalf MA, Jose PA, Hamblin MW, and Sibley DR. […] J. Biol. Chem. 1993, 268, 18200 - 18204]. […] J. Pharmacol. Exp. Ther. 1994, 268:1403-1410]. […] Methiothepin is used as positive control.
# [2] = read-out: α-Adrenoceptor, % inhibition α1D
# [3] = read-out: Histamine receptors, % inhibition H1, 10 µM ligand
# [4] = read-out: Dopamine receptors, % inhibition D2S
smiles,measurement,setting,value
Cc1ccc2c(c1)[C@@H]1CN(C)CCC[C@@H]1N2CCc1cccnc1 (relative stereo) [1.6.1(1)·3HCl],inhibition at 10 µM,human H2 receptor,48%
same,inhibition at 10 µM,human D1 receptor,59%
same,inhibition at 10 µM,human α1D receptor; [2],90%
same,inhibition at 10 µM,human H1 receptor; [3],100%
same,inhibition at 10 µM,human D4.2 receptor,-6%
same,inhibition at 10 µM,human D2S receptor; [4],42%
Cc1ccc2c(c1)[C@@H]1CN(C)CCC[C@@H]1N2CCc1ccc(C)nc1 (relative stereo) [1.6.1(2)·3HCl],inhibition at 10 µM,human H2 receptor,66%
same,inhibition at 10 µM,human D1 receptor,55%
same,inhibition at 10 µM,human α1D receptor; [2],87%
same,inhibition at 10 µM,human H1 receptor; [3],102%
same,inhibition at 10 µM,human D4.2 receptor,-11%
same,inhibition at 10 µM,human D2S receptor; [4],31%
same,inhibition at 10 µM,[1],-4%
same,inhibition at 10 µM,recombinant human 5-HT1A,-9%
same,inhibition at 10 µM,human 5-HT7 receptor; read-out: 5-HT7 % inhibition,8%
"Cc1ccc2c(c1)c1c(n2CCc2ccccc2)CCN(C)C1 [1.1.2(1-2)·HCl, 2,8-dimethyl-5-phenethyl-1,2,3,4-tetrahydro-1H-pyrido[4,3-b]indole hydrochloride]",inhibition at 10 µM,human H2 receptor,102%
same,inhibition at 10 µM,human α1D receptor; [2],102%
same,inhibition at 10 µM,recombinant human 5-HT1A,84%
"Cc1ccc(CCn2c3c(c4cc(C)ccc42)CN(C)CC3)cc1 [1.1.2(1-3), 2,8-dimethyl-5-[2-(4-methylphenyl)-ethyl]-1,2,3,4-tetrahydro-1H-pyrido[4,3-b]indole]",nH,human α1D receptor,"1,21"
same,5-HT2A % inhibition,[1],98%
same,5-HT1A % inhibition,recombinant human 5-HT1A; 10 µM ligand,68%
same,5-HT7 % inhibition,human 5-HT7 receptor; 10 µM ligand,98%
Cc1ccc2c(c1)c1c(n2CCc2ccccn2)CCN(C)C1 [1.1.2(2-3)·2HCl],inhibition at 10 µM,human H2 receptor,82%
same,inhibition at 10 µM,human D1 receptor,70%
same,inhibition at 10 µM,human α1D receptor; [2],92%
same,inhibition at 100 µM,human D4.2 receptor,71%
same,inhibition at 3 µM,human D2S receptor; [4],77%
Cc1ccc2c(c1)c1c(n2CCc2ccc(C)nc2)CCN(C)C1 [1.1.2(4-2)·2HCl],inhibition at 10 µM,human D1 receptor; 10 µM ligand,82%
same,inhibition at 10 µM,"human H1 receptor; 10 µM ligand, read-out: Histamine receptors, % inhibition H1",100%
same,nH,human H1 receptor,1.01
same,inhibition at 10 µM,human D4.2 receptor; 10 µM ligand,54%
same,"Dopamine receptors, % inhibition D2S",human D2S receptor; 10 µM ligand,80%
same,Ki,human D2S receptor; Receptor D2S,0.629 µM
same,nH,human D2S receptor; Receptor D2S,0.724
same,inhibition at 10 µM,recombinant human 5-HT1A; 10 µM ligand,9%
same,inhibition at 10 µM,"human 5-HT7 receptor; 10 µM ligand, read-out: 5-HT7 % inhibition",96%
Cc1ccc2c(c1)c1c(n2CCc2ccccn2)CCCN(C)C1 [1.2.2(2-2)],"α-Adrenoceptor, % inhibition α1D",human α1D receptor; 10 µM ligand,63%
same,5-HT2A % inhibition,[1],46%
same,5-HT1A % inhibition,recombinant human 5-HT1A; 10 µM ligand,-5%
same,5-HT7 % inhibition,human 5-HT7 receptor; 10 µM ligand,74%
"CN1CCc2c(c3ccccc3n2Cc2ccccc2)C1 [1.9(1)·1/2NDSA, bis-(5-benzyl-2-methyl-2,3,4,5-tetrahydro-1H-pyrido[4,3-b]indole) naphthalene-1,5-disulfonate]","Histamine receptors, % inhibition H2",human H2 receptor; 10 µM ligand,97%
same,IC50,human D1 receptor; Receptor D1,3.66 µM
same,Ki,human D1 receptor; Receptor D1,1.83 µM
same,nH,human D1 receptor; Receptor D1,1.38
same,inhibition at 10 µM,human D1 receptor,77%
same,nH,human α1D receptor,"1,05"
same,inhibition at 3 µM,human α1D receptor; [2],70%
same,"Histamine receptors, % inhibition H1",human H1 receptor; 10 µM ligand,105%
same,nH,human H1 receptor,0.789
same,nH,human D2S receptor; Receptor D2S,0.879
same,inhibition at 10 µM,human D2S receptor; [4],51%
"CN1CCc2c(c3ccccc3n2Cc2ccccc2)C1.Cl [1.9(1)·HCl, 5-benzyl-2-methyl-2,3,4,5-tetrahydro-1H-pyrido[4,3-b]indole hydrochloride]",inhibition at 10 µM,human H2 receptor,97%
same,inhibition at 10 µM,human H1 receptor; [3],97%
same,inhibition at 0.1 µM,[1]; 0.1µM ligand,68%
same,inhibition at 10 µM,[1],96%
same,nH,[1]; 5-HT2A,0.765
same,inhibition at 0.3 µM,human 5-HT7 receptor; read-out: 5-HT7 % inhibition,76%
same,inhibition at 10 µM,human 5-HT7 receptor; read-out: 5-HT7 % inhibition,91%

# From patent publication EP2236511A2, “LIGANDS OF ALPHA-ADRENOCEPTORS AND OF DOPAMINE, HISTAMINE, IMIDAZOLINE AND SEROTONIN RECEPTORS AND THE USE THEREOF” (priority 2007, dated 2009)
